Reference: patent US6492385B2, “Quinuclidine-substituted heteroaryl moieties for treatment of disease” (Pharmacia & Upjohn Company, priority 2000, dated 2002)
Counter-ions that a name gives are not always drawn.

Molecular target: α7 nAChR (Rattus norvegicus, UniProt Q05941)
Test: [3H]-MLA competition binding assay, rat brain membranes

α7 nAChR, sequence (Q05941 23-502): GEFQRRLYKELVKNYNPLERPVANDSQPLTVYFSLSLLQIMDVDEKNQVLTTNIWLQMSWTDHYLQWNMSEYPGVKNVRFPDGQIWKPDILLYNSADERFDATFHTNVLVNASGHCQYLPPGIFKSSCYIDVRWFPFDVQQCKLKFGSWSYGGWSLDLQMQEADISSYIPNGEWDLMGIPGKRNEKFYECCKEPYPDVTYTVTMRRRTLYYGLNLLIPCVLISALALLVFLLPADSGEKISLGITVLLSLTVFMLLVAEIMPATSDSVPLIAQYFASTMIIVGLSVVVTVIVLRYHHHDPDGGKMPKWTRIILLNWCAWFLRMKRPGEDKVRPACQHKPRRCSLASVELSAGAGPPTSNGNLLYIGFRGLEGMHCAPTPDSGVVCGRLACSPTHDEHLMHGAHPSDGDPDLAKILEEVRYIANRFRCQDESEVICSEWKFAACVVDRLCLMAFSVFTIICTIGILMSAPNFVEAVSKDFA

`COc1ccc(C(=O)N[C@H]2CN3CCC2CC3)s1` [Example 19, N-[(3R)-1-Azabicyclo[2.2.2]oct-3-yl]-5-methoxy-thiophene-2-carboxamide Hydrochloride] showed a Ki of 2 to 4 nM.
`O=C(N[C@H]1CN2CCC1CC2)c1ccc(-c2ccccc2O)s1` [Example 41, N-[(3R)-1-Azabicyclo[2.2.2]oct-3-yl]-5-(2-hydroxyphenyl)-thiophene-2-carboxamide Hydrochloride] was tested, and the Ki was 3 to 4 nM.
